# ± gives the standard deviation of the averaged measurements.
# Tested on: HepaRG
# Assay: LDH release cytotoxicity, % of total lysis control; higher = more cytotoxic
# Settings: 48 h
# Outline: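 The CytoTox-ONE kit was used to read LDH in 50 µL spent medium as resorufin fluorescence on a Tecan Safire, with 0.1% Triton X added to total lysis wells. Beforehand, single-lot HepaRG cells on collagen I-coated 96-well plates had been exposed in duplicate for 48 h to eight-point half-log series (top 100 µM) in serum-free induction medium containing 0.5% DMSO. Percent cytotoxicity was normalized against on-plate vehicle and total lysis controls and averaged over duplicates.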
Compound,LDH release cytotoxicity (0.03162 µM) [%],LDH release cytotoxicity (0.1 µM) [%],LDH release cytotoxicity (0.3162278 µM) [%],LDH release cytotoxicity (1 µM) [%],LDH release cytotoxicity (3.16228 µM) [%],LDH release cytotoxicity (10 µM) [%],LDH release cytotoxicity (31.6228 µM) [%],LDH release cytotoxicity (100 µM) [%],also measured
CCc1ccc(C(=O)NN(C(=O)c2cc(C)cc(C)c2)C(C)(C)C)cc1 [Tebufenozide],-0.939 ± 1.3,0.194 ± 0.33,-0.662 ± 1.2,-0.0494 ± 1.4,-0.0064 ± 0.51,0.106 ± 0.49,0.645 ± 0.25,11.3 ± 0.39,
CCc1nn(C)c(C(=O)NCc2ccc(C(C)(C)C)cc2)c1Cl [Tebufenpyrad],-1.57 ± 0.17,-1.25 ± 0.71,-2.38 ± 0.55,5.74 ± 2.5,10.5 ± 1.9,15.5 ± 3.4,23.2 ± 2.7,49.6 ± 7.2,
CCOP(=S)(Oc1cnc(C(C)(C)C)nc1)OC(C)C (centres undefined) [Tebupirimfos],,-1.67 ± 1.3,,-2.26 ± 0.87,-2.34 ± 0.48,-3.02 ± 0.61,-2.48 ± 1.2,-2.06 ± 1.2,LDH release cytotoxicity (0.031623 µM): 0.203 ± 2.2%; LDH release cytotoxicity (0.316228 µM): -2.72 ± 0.73%
CNC(=O)N(C)c1nnc(C(C)(C)C)s1 [Tebuthiuron],-1.29 ± 0.35,-1.38 ± 0.11,-1.87 ± 0.62,-1.53 ± 0.63,-0.935 ± 0.044,-1.24 ± 0.31,-1.15 ± 0.46,0.223 ± 0.25,
Cc1c(F)c(F)c(COC(=O)C2C(C=C(Cl)C(F)(F)F)C2(C)C)c(F)c1F (centres undefined) [Tefluthrin],-0.665 ± 0.058,-0.785 ± 0.14,-1.49 ± 0.56,-1.6 ± 0.5,-1.72 ± 0.74,-0.97 ± 0.31,-0.478 ± 0.69,-0.883 ± 1,
CCC(=NOCC=CCl)C1C(=O)CC(C2CCOCC2)CC1=O (centres undefined) [Tepraloxydim],-1.86 ± 0.12,-1.65 ± 0.29,-1.97 ± 0.062,-1.72 ± 0.081,-1.7 ± 0.22,-1.32 ± 0.12,-0.75 ± 0.13,-0.617 ± 0.06,
CC1=NC(=O)N(C(C)(C)C)C(=O)C1Cl (centres undefined) [Terbacil],,-3.63 ± 0.95,,-3.38 ± 0.33,-2.68 ± 1.1,-2.77 ± 0.39,-1.74 ± 0.92,2.1 ± 0.37,LDH release cytotoxicity (0.031623 µM): -1.65 ± 0.11%; LDH release cytotoxicity (0.316228 µM): -2.5 ± 0.94%
CCOP(=S)(OCC)SCSC(C)(C)C [Terbufos],-1.37 ± 0.13,-0.712 ± 0.88,-1.15 ± 0.65,-1.03 ± 0.13,-0.647 ± 0.28,-0.0424 ± 0.46,-0.0818 ± 0.1,1.12 ± 0.089,
CCNc1nc(Cl)nc(NC(C)(C)C)n1 [Terbutylazine],0.3 ± 1.3,-1.75 ± 0.07,-0.304 ± 1.2,-1.25 ± 0.2,-0.494 ± 0.44,-0.989 ± 0.83,-0.271 ± 1.1,-0.0173 ± 1.5,
CCC(=O)OC1CCC2C3CCC4=CC(=O)CCC4(C)C3CCC12C (centres undefined) [Testosterone propionate],-1.39 ± 0.61,-0.545 ± 0.63,-1.1 ± 0.026,-1.85 ± 0.12,-1.06 ± 0.29,-1.07 ± 0.27,-0.42 ± 0.67,-0.461 ± 0.24,
O=C(O)Cc1cc(I)c(Oc2cc(I)c(O)c(I)c2)c(I)c1 [Tetrac],,,,,,,,,LDH release cytotoxicity (0.0211873 µM): 0.0963 ± 1.1%; LDH release cytotoxicity (0.067 µM): -0.0291 ± 0.51%; LDH release cytotoxicity (0.211873 µM): 0.0359 ± 0.7%; LDH release cytotoxicity (0.67 µM): 0.258 ± 1.1%; LDH release cytotoxicity (2.11873 µM): 1.04 ± 0.39%; LDH release cytotoxicity (6.7 µM): 0.279 ± 0.69%; LDH release cytotoxicity (21.1873 µM): -0.194 ± 0.92%; LDH release cytotoxicity (67 µM): 34 ± 0.74%
FC(F)C(F)(F)OCC(Cn1cncn1)c1ccc(Cl)cc1Cl (centres undefined) [Tetraconazole],,,,,,,,,LDH release cytotoxicity (0.0314647 µM): -0.665 ± 0.72%; LDH release cytotoxicity (0.0995 µM): -2.23 ± 0.2%; LDH release cytotoxicity (0.3146466 µM): -1.54 ± 0.36%; LDH release cytotoxicity (0.995 µM): -2.38 ± 0.84%; LDH release cytotoxicity (3.14647 µM): -2.48 ± 0.21%; LDH release cytotoxicity (9.95 µM): -2.1 ± 0.41%; LDH release cytotoxicity (31.4647 µM): 1.5 ± 0.2%; LDH release cytotoxicity (99.5 µM): 52.5 ± 4.9%
CCN(CC)C(=S)SSC(=S)N(CC)CC [Tetraethylthiuram disulfide],,,,,,,,,LDH release cytotoxicity (0.0322552 µM): -1.43 ± 0.25%; LDH release cytotoxicity (0.102 µM): -2.15 ± 0.58%; LDH release cytotoxicity (0.322552 µM): -2.5 ± 0.25%; LDH release cytotoxicity (1.02 µM): -2.4 ± 0.028%; LDH release cytotoxicity (3.2255232 µM): -1.91 ± 0.23%; LDH release cytotoxicity (10.2 µM): -1.62 ± 0.69%; LDH release cytotoxicity (32.2552 µM): -0.659 ± 0.28%; LDH release cytotoxicity (102 µM): 3.01 ± 0.7%
CC(C)=CC1C(C(=O)OCN2C(=O)C3=C(CCCC3)C2=O)C1(C)C (centres undefined) [Tetramethrin],-1.77 ± 0.86,-1.73 ± 1,-2 ± 0.85,-2.13 ± 0.4,-1.65 ± 0.066,-1.51 ± 0.38,-0.61 ± 0.13,0.736 ± 0.64,
O=C1CCC(N2C(=O)c3ccccc3C2=O)C(=O)N1 (centres undefined) [Thalidomide],-0.888 ± 0.55,-1.52 ± 0.44,-0.291 ± 0.28,-0.415 ± 0.18,-0.0333 ± 0.45,0.674 ± 0.93,1.56 ± 1.5,1.53 ± 1.5,
Cn1cnc2c1c(=O)[nH]c(=O)n2C [Theobromine],,,,,,,,,LDH release cytotoxicity (0.0132816 µM): 0.266 ± 2.6%; LDH release cytotoxicity (0.042 µM): 0.527 ± 1.8%; LDH release cytotoxicity (0.132816 µM): 0.244 ± 1.1%; LDH release cytotoxicity (0.42 µM): -0.545 ± 0.65%; LDH release cytotoxicity (1.3281566 µM): 0.0875 ± 0.46%; LDH release cytotoxicity (4.2 µM): -0.226 ± 0.1%; LDH release cytotoxicity (13.281566 µM): -0.215 ± 0.61%; LDH release cytotoxicity (42 µM): 0.896 ± 0.38%
Cn1c(=O)c2[nH]cnc2n(C)c1=O [Theophylline],-1.27 ± 0.97,-2.1 ± 0.29,-1.54 ± 0.53,-1.74 ± 0.26,-1.51 ± 0.33,-1.15 ± 0.042,-0.719 ± 0.16,-0.479 ± 0.38,
c1ccc2[nH]c(-c3cscn3)nc2c1 [Thiabendazole],-1.05 ± 0.62,-0.974 ± 0.082,-1.37 ± 0.03,-1.6 ± 0.34,-1.13 ± 0.68,-0.856 ± 0.24,0.392 ± 0.63,5.7 ± 1.5,

# Source: the supplement of paper PMC7840683
